Laboratory results published in patent publication US20250129430A1, “HIGH ATP-AFFINITY PROTEIN AS THERAPEUTIC TARGET FOR INTRACTABLE CANCER MOLECULAR SUBTYPES AND INHIBITOR THEREOF” (VeraVerse Co., Ltd., priority 2021, published 2025).

Legend:
Assay in all cases: Cell viability drug screen, 12-point dose-response AUC
Type in all cases: cell-based, human
[1] = tested on: AGS; settings: 72 hours; for area under the viability curve (AUC), normalized: AGS cells, 12-point dose-response
Outline: (§1)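 Dose-response AUC reflects 72 h drug exposure of gastric cancer cells in a 12-point, half-log format, with viability read by luminescence and normalized to DMSO (0.5%).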

[2] = tested on: Hs746T; settings: 72 hours; for area under the viability curve (AUC), normalized: Hs746T cells, 12-point dose-response
Outline: (§2)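 Viability: luminescence (Glo kit, 15 min RT), normalized to 0.5% DMSO vehicle. Dosing: half-log, 12 concentrations, 72 h. Cells: 5×10^3/well, treated 24 h after plating. Value: trapezoidal AUC, mean of repeats.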

[3] = tested on: KATO3; settings: KATO3 cells, 72 hours; for area under the viability curve (AUC), normalized: 12-point dose-response
Outline: as §2

[4] = tested on: MKN1; settings: MKN1 cells, 72 hours; for area under the viability curve (AUC), normalized: 12-point dose-response
Outline: as §2

[5] = tested on: MKN28; settings: MKN28 cells, 72 hours; for area under the viability curve (AUC), normalized: 12-point dose-response
Outline: as §2

[6] = tested on: MKN45; settings: 72 hours; for area under the viability curve (AUC), normalized: MKN45 cells, 12-point dose-response
Outline: as §1

[7] = tested on: MKN74; settings: MKN74 cells, 72 hours; for area under the viability curve (AUC), normalized: 12-point dose-response
Outline: as §1

[8] = tested on: NCC19; settings: NCC19 cells, 72 hours; for area under the viability curve (AUC), normalized: 12-point dose-response
Outline: as §2

[9] = tested on: NCC20; settings: NCC20 cells, 72 hours; for area under the viability curve (AUC), normalized: 12-point dose-response
Outline: as §2

[10] = tested on: NCC24; settings: NCC24 cells, 72 hours; for area under the viability curve (AUC), normalized: 12-point dose-response
Outline: as §2

[11] = tested on: NCC59; settings: NCC59 cells, 72 hours; for area under the viability curve (AUC), normalized: 12-point dose-response
Outline: as §2

[12] = tested on: NCI_N87; settings: NCI_N87 cells, 72 hours; for area under the viability curve (AUC), normalized: 12-point dose-response
Outline: as §2

[13] = tested on: OCUM1; settings: OCUM1 cells, 72 hours; for area under the viability curve (AUC), normalized: 12-point dose-response
Outline: as §2

[14] = tested on: SK4; settings: 72 hours; for area under the viability curve (AUC), normalized: SK4 cells, 12-point dose-response
Outline: as §2

[15] = tested on: SNU16; settings: SNU16 cells, 72 hours; for area under the viability curve (AUC), normalized: 12-point dose-response
Outline: as §2

[16] = tested on: SNU1750; settings: 72 hours; for area under the viability curve (AUC), normalized: SNU1750 cells, 12-point dose-response
Outline: as §2

[17] = tested on: SNU1967; settings: SNU1967 cells, 72 hours; for area under the viability curve (AUC), normalized: 12-point dose-response
Outline: as §2

[18] = tested on: SNU1; settings: SNU1 cells, 72 hours; for area under the viability curve (AUC), normalized: 12-point dose-response
Outline: as §2

[19] = tested on: SNU216; settings: 72 hours; for area under the viability curve (AUC), normalized: SNU216 cells, 12-point dose-response
Outline: as §1

[20] = tested on: SNU484; settings: 72 hours; for area under the viability curve (AUC), normalized: SNU484 cells, 12-point dose-response
Outline: as §2

[21] = tested on: SNU601; settings: SNU601 cells, 72 hours; for area under the viability curve (AUC), normalized: 12-point dose-response
Outline: as §2

[22] = tested on: SNU620; settings: SNU620 cells, 72 hours; for area under the viability curve (AUC), normalized: 12-point dose-response
Outline: as §2

[23] = tested on: SNU638; settings: SNU638 cells, 72 hours; for area under the viability curve (AUC), normalized: 12-point dose-response
Outline: as §2

[24] = tested on: SNU668; settings: 72 hours; for area under the viability curve (AUC), normalized: SNU668 cells, 12-point dose-response
Outline: as §2

[25] = tested on: SNU719; settings: SNU719 cells, 72 hours; for area under the viability curve (AUC), normalized: 12-point dose-response
Outline: as §1

[26] = tested on: YCC11; settings: 72 hours; for area under the viability curve (AUC), normalized: YCC11 cells, 12-point dose-response
Outline: as §2

[27] = tested on: YCC2; settings: YCC2 cells, 72 hours; for area under the viability curve (AUC), normalized: 12-point dose-response
Outline: as §2

[28] = tested on: YCC3; settings: YCC3 cells, 72 hours; for area under the viability curve (AUC), normalized: 12-point dose-response
Outline: as §2

[29] = tested on: FU97; parameters: Average Area Under the Viability Curve (AUC), AUC norm value: scale not given here; settings: FU97 cells, 72 hours; for area under the viability curve (AUC), normalized: 12-point dose-response
Outline: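 Trapezoidal AUC of a 12-point, DMSO-normalized dose-response curve. Luminescent viability was measured after 72 h of exposure at 37° C to half-log serial dilutions (0.5% DMSO control), dosed 24 h after plating FU97 cells at 5×10^3 per well.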

OC1(c2ccc(Cl)c(C(F)(F)F)c2)CCN(CCCC(c2ccc(F)cc2)c2ccc(F)cc2)CC1 [Penfluridol]
Average Area Under the Viability Curve (AUC), AUC norm value ([1]; AGS cells (non-SEM subtype)): −0.6917
Average Area Under the Viability Curve (AUC), AUC norm value ([2]; Hs746T cells (SEM subtype)): 0.2822
Average Area Under the Viability Curve (AUC), AUC norm value [3]: 0
Average Area Under the Viability Curve (AUC), AUC norm value [4]: −0.01646
Average Area Under the Viability Curve (AUC), AUC norm value [5]: −0.6097
Average Area Under the Viability Curve (AUC), AUC norm value ([6]; MKN45 cells (non-SEM subtype)): 0.9981
Average Area Under the Viability Curve (AUC), AUC norm value [7]: −1.133
Average Area Under the Viability Curve (AUC), AUC norm value [8]: 0.6239
Average Area Under the Viability Curve (AUC), AUC norm value [9]: −0.8471
Average Area Under the Viability Curve (AUC), AUC norm value [10]: 0.5023
Average Area Under the Viability Curve (AUC), AUC norm value [11]: 0.3439
Average Area Under the Viability Curve (AUC), AUC norm value [12]: 0.3682
Average Area Under the Viability Curve (AUC), AUC norm value [13]: 0.2066
Average Area Under the Viability Curve (AUC), AUC norm value ([14]; SK4 cells (SEM subtype)): −0.5075
Average Area Under the Viability Curve (AUC), AUC norm value [15]: −1.2587
Average Area Under the Viability Curve (AUC), AUC norm value ([16]; SNU1750 cells (SEM subtype)): −0.03209
Average Area Under the Viability Curve (AUC), AUC norm value [17]: −0.08879
Average Area Under the Viability Curve (AUC), AUC norm value [18]: 0.8479
Average Area Under the Viability Curve (AUC), AUC norm value ([19]; SNU216 cells (non-SEM subtype)): −0.5069
Average Area Under the Viability Curve (AUC), AUC norm value ([20]; SNU484 cells (SEM subtype)): −0.3957
Average Area Under the Viability Curve (AUC), AUC norm value [21]: 0.6748
Average Area Under the Viability Curve (AUC), AUC norm value [22]: 0.04726
Average Area Under the Viability Curve (AUC), AUC norm value [23]: −1.32
Average Area Under the Viability Curve (AUC), AUC norm value ([24]; SNU668 cells (SEM subtype)): 0.00275
Average Area Under the Viability Curve (AUC), AUC norm value [25]: 0.3303
Average Area Under the Viability Curve (AUC), AUC norm value ([26]; YCC11 cells (SEM subtype)): −0.5164
Average Area Under the Viability Curve (AUC), AUC norm value [27]: −0.07658
Average Area Under the Viability Curve (AUC), AUC norm value [28]: 0.4477
Average Area Under the Viability Curve (AUC), AUC norm value [29]: 0.09295

CCCCc1nc2cc(/C=C/C(=O)NO)ccc2n1CCN(CC)CC [SB939 (Pracinostat), Pracinostat]
area under the viability curve (AUC), normalized [1]: −1.799
area under the viability curve (AUC), normalized [2]: 0.7098
area under the viability curve (AUC), normalized [3]: 0.2173
area under the viability curve (AUC), normalized [4]: 0.232
area under the viability curve (AUC), normalized [5]: −0.5866
area under the viability curve (AUC), normalized [6]: 1.672
area under the viability curve (AUC), normalized [7]: 0.3806
area under the viability curve (AUC), normalized [8]: 0.6538
area under the viability curve (AUC), normalized [9]: −0.08068
area under the viability curve (AUC), normalized [10]: −1.137
area under the viability curve (AUC), normalized [11]: 1.053
area under the viability curve (AUC), normalized [12]: −0.6724
area under the viability curve (AUC), normalized [13]: 0.7195
area under the viability curve (AUC), normalized [14]: −0.454
area under the viability curve (AUC), normalized [15]: −1.067
area under the viability curve (AUC), normalized [16]: −1.156
area under the viability curve (AUC), normalized [17]: −0.4581
area under the viability curve (AUC), normalized [18]: −1.4
area under the viability curve (AUC), normalized [19]: 0.6217
area under the viability curve (AUC), normalized [20]: 0.208
area under the viability curve (AUC), normalized [21]: 0.1827
area under the viability curve (AUC), normalized [22]: −1.199
area under the viability curve (AUC), normalized [23]: −0.278
area under the viability curve (AUC), normalized [24]: 0.519
area under the viability curve (AUC), normalized [25]: 2.187
area under the viability curve (AUC), normalized [26]: −0.768
area under the viability curve (AUC), normalized [27]: −0.02045
area under the viability curve (AUC), normalized [28]: 1.403
area under the viability curve (AUC), normalized [29]: 0

Cc1ccc(C(=O)N(CCCN)[C@@H](c2oc3cc(Cl)ccc3c(=O)c2Cc2ccccc2)C(C)C)cc1 [SB 743921]
area under the viability curve (AUC), normalized [1]: −2.366
area under the viability curve (AUC), normalized [2]: 1.359
area under the viability curve (AUC), normalized [3]: 3.189
area under the viability curve (AUC), normalized [4]: −1.406
area under the viability curve (AUC), normalized [5]: −1.699
area under the viability curve (AUC), normalized [6]: 2.818
area under the viability curve (AUC), normalized [7]: 0.00599
area under the viability curve (AUC), normalized [8]: 1.296
area under the viability curve (AUC), normalized [9]: −1.288
area under the viability curve (AUC), normalized [10]: −2.238
area under the viability curve (AUC), normalized [11]: 2.285
area under the viability curve (AUC), normalized [12]: −1.205
area under the viability curve (AUC), normalized [13]: 1.653
area under the viability curve (AUC), normalized [14]: −0.9769
area under the viability curve (AUC), normalized [15]: −1.454
area under the viability curve (AUC), normalized [16]: 0.00014
area under the viability curve (AUC), normalized [17]: 0.8572
area under the viability curve (AUC), normalized [18]: −0.9587
area under the viability curve (AUC), normalized [19]: 2.438
area under the viability curve (AUC), normalized [20]: −1.3076
area under the viability curve (AUC), normalized [21]: −1.703
area under the viability curve (AUC), normalized [22]: −2.366
area under the viability curve (AUC), normalized [23]: −0.2572
area under the viability curve (AUC), normalized [24]: 0
area under the viability curve (AUC), normalized [25]: 2.115
area under the viability curve (AUC), normalized [26]: −1.353
area under the viability curve (AUC), normalized [27]: 0.2048
area under the viability curve (AUC), normalized [28]: 2.421
area under the viability curve (AUC), normalized [29]: 0.8407
